This assay has as its system Zucker Diabetic Fatty (ZDF) rats. The assay is described as follows: Zucker Diabetic Fatty (ZDF) rat study (glucose, clamp, adipose histology, lipid profiles). The format is in vivo. On the procedure:
The study was staggered into 6 cohorts conducted on different days. Forty-two male Zucker Diabetic Fatty (ZDF) rats and six Zucker Fatty rats at 7-week of age were obtained from Charles River laboratories (Wilmington, Mass.). The rats were housed individually in polycarbonate cages in a temperature-controlled room on a 12 h: 12 h light: dark cycle with the lights on at 0600 h. Rats were fed ad libitum except during the experiments. After one week of acclimation to environmental conditions, the ZDF rats began daily oral treatment for 32 to 35 days with vehicle (n=18), 100 mg/kg/day 17α-ethynylandrost-5-ene-3β,7β,17β-triol (n=15), or 10 mg/kg/day rosiglitazone (n=9).
Glucose levels were measured using a One-Touch glucometer (Lifescan). Extra serum samples were collected for free fatty acid (FFA), free glycerol, pyruvate, and lactate measurements. Glucose, insulin and pyruvate tolerance tests were performed on 6 hr fasted rats. For GTT, animals were orally gavaged with glucose (1 g/kg), whereas for ITT, 0.35 units/kg insulin (Novolin R, Novo-Nordisk) was injected intraperitoneally. Blood samples were taken at basal and 15, 30, 60, 90 and 120 min after injection. For the pyruvate tolerance test (PTT), 1 g/kg of pyruvate was used.
Dual jugular venous cannulae and one carotid arterial cannula were implanted in rats. The rats were allowed to recover for 4 to 5 days before clamp procedure. The hyperinsulinemic euglycemic clamp experiments began with a priming injection (7.5 μCi/0.2 ml) and constant infusion (0.25 μCi/min) of D-[3-^3H] glucose (Du Pont-NEN, Boston, Mass.). After 60 min of tracer equilibration and basal sampling at t=−10 and 0 min, glucose (50% dextrose, variable infusion; Abbott) and tracer (0.25 μCi/min) plus insulin ([…]) were infused into the jugular vein. Small blood samples were drawn at 10-min intervals and immediately analyzed for glucose to maintain the integrity of the glucose clamp throughout the duration of the experiment. Blood samples were taken at t=−60 (start of experiment), −10, 0 (basal), 110, and 120 (end of experiment) min to determine glucose-specific activity and insulin, and free fatty acid (FFA). To ensure accuracy, basal and terminal sampling was performed twice at 10-min intervals. The achievement of steady-state conditions (100 mg/dl±5 mg/dl) was confirmed at the end of the clamp by measuring blood glucose every 10 min and ensuring that steady state for glucose infusion and plasma glucose levels were maintained for a minimum of 20 min. All blood samples were immediately centrifuged, and plasma was stored at −80° C. for subsequent analysis.
Following a 3-day recovery after clamp, rats were fasted 6 hours and euthanized. Tissues were harvested at basal state or acute insulin-stimulated state (5 U/kg). Insulin levels were analyzed by ELISA assay (Alpco Diagnostics). FFA levels were measured by enzymatic assay (Wako Diagnostics). Glycerol levels were measured using an assay kit from Sigma. Lactate and pyruvate assay kits were obtained from Biovision. TNFα and IL-1βwere measured by ELISA assays (Biosource).
Immunohistochemistry and quantification of crown-like structure (CLS) were done. These studies were conducted using paraffin-embedded adipose (epididymal) tissue sections from the rats incubated with MAC-2 antibody (Abcam) at a 1:100 dilution overnight at 4° C. Subsequently, biotinylated anti-rat secondary antibody (BD Bioscience) was used at 1:100 dilution, followed by 1:500 HRP-Streptavidin (Jackson ImmunoResearch) and development in substrate chromogen. Slides were counterstained with Mayer's and mounted with Vectashield mounting media with DAPI (Vector). Both bright field (MAC-2) and fluorescent photographs (DAPI) were taken of 3 representative fields per slide in a blinded fashion using a fluorescent microscope (10× objective).
Gene expression analyses used total RNA extracted from tissue with Purelink total RNA purification system (Invitrogen) following the manufacturer's protocol.

Setting [1] is: ZDF rats, 100 mg/kg/d, throughout the study, one week sufficient.
[2] abbreviates: euglycemic-hyperinsulinemic clamp, triol 100 mg/kg/d, rosiglitazone 10 mg/kg/d (more robust).

As for `C#C[C@]1(O)CC[C@H]2[C@@H]3[C@@H](O)C=C4C[C@@H](O)CC[C@]4(C)[C@H]3CC[C@@]21C` [17α-ethynylandrost-5-ene-3β,7β,17β-triol], where the note is “ZDF rats”, the “intracellular triacylglycerol (TAG) content in livers” value is on record as “marked decrease”. Under “ZDF rats, 100 mg/kg/d”, the “decrease in serum cholesteryl esters” value was determined as 59%, the “decrease in serum total cholesterol levels” value stood at 25%, the “gross pathology of the kidneys due to diabetes” value is on record as “greatly ameliorated” and the “level of free cholesterol in epididymal white adipose tissue (WAT)” value is on record as “reduced”. Moreover, for the setting “ZDF rats, 100 mg/kg/d”, the “other major lipid classes in WAT” value is “not significantly altered”, the “reduction of hepatic cholesteryl ester levels” value came to 73%, the “reduction of total cholesterol content in the liver” value amounted to 15% and the “serum free cholesterol levels” value is “increase”. Besides, where the note is “ZDF rats, 100 mg/kg/d, one week of treatment”, the plasma insulin levels entry was “normalize”. In addition, under setting [1], the fasting glucose levels entry is given as “completely normalized” and the fed glucose levels result is reported as “completely normalized”. Further, the “adipose tissue macrophage (ATM) content, Mac-2 staining” value (ZDF rats, epididymal adipose tissue sections) is given as “marked reduction”. For the same molecule, under “ZDF rats, gene expression”, the “HMG CoA reductase expression” value was “increased” and the “low density lipoprotein receptor (LDLR) expression” value is reported as “increased”. In addition, under “ZDF rats, p<0.05”, the “MCP-1 in adipose tissue” value is “decrease” and the “TNFα in adipose tissue” value is recorded as “decrease”. For the same molecule, the “Basal rates of hepatic glucose production (HGP)” value (clamp, triol 100 mg/kg/d, rosiglitazone 10 mg/kg/d) was “equally reduced”. Also, under setting [2], the glucose infusion rate result was “increase” and the insulin-stimulated glucose disposal result was “increase”.
